Measured values reported in patent publication US12643912B2, “Macrocyclic compounds, a process for their preparation and pharmaceutical compositions containing them” (LES LABORATOIRES SERVIER, priority 2020, dated 2026).
pEC50, pKd: −log10 of the molar value. Where two headings read alike, the source gives them in different places.

Legend:
[1] = test system: Nrf2 (Keap1-NRF2 nuclear translocation); assay: U2OS translocation assay (PathHunter U2OS Keap1-NRF2 Nuclear Translocation Cell Line); format: cell-based; settings: for pEC50: read-out: CELLULAR U2OS EC50, U2OS Keap1-NRF2 nuclear translocation cells, 3 h incubation, luminescence, normalized between 1% DMSO and 10 μM andrographolide; for EC50: Homo sapiens, U2OS, 3 h, read-out: CELLULAR U2OS EC50 (nM), U2OS Keap1-NRF2 nuclear translocation cells, 3 h incubation, luminescence, normalized between 1% DMSO and 10 μM andrographolide
How it was run: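 PathHunter U2OS line expressing Nrf2-enzyme-donor fusion and nuclear acceptor enzyme, 7 500 cells/well in Opti-MEM, 1% FBS. Compounds incubated 3 h at 37° C. Luminescence after 60 min with detection reagent, normalized between 1% DMSO and 10 μM andrographolide.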

Keap1 (A321-C624) (h) = molecular target: T1, Keap1 (A321-C624) (h) (Homo sapiens, UniProt Q14145); assay: Surface Plasmon Resonance binding assay to Kelch domain of KEAP1; settings: Biacore T200, 25° C., immobilized His-Thromb-KEAP1(A321-C624), single cycle kinetics, KD=kd/ka from 1:1 fit; read-out: Keap1 (A321-C624) (h) direct/SPR (KD)
T1 construct: His-Thromb-KEAP1(A321-C624) acquired from Novalix (batch PU-P01) was immobilized covalently by amine coupling; His tag (N); thrombin cleavage site (Thromb) (N); purchased Novalix batch PU-P01
T1 sequence (Q14145 321-624): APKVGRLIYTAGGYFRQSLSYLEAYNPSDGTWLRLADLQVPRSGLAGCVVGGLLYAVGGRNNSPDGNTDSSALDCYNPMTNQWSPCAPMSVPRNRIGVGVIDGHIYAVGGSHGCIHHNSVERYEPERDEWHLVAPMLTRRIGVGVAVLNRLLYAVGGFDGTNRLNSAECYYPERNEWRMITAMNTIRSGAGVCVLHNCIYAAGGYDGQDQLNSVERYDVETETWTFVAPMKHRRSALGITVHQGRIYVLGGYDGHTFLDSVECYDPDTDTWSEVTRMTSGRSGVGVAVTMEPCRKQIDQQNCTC
How it was run: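 His-Thromb-KEAP1(A321-C624) amine-coupled on CM5 chip to 1250 RU; amine blank reference. Run at 25° C in HEPES pH 7.4, 150 mM NaCl, 3 mM EDTA, 1 mM TCEP, 0.05% P20, 5% DMSO; 180 s association, 720 s dissociation, 50 μL/min. KD = kd/ka from 1:1 kinetic fit, double-referenced, DMSO solvent-corrected.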

| SMILES | pEC50 [1] | pKd (Keap1 (A321-C624) (h)) | EC50 [1] [nM] |
| --- | --- | --- | --- |
| COc1ccc2cc1CN1Cc3cc(ccc3OS1(=O)=O)OCCCCn1nnc3c(C)c(ccc31)C2CC(=O)O (single isomer, unassigned) [Example 10b, [4-Methoxy-31-methyl-27,27-dioxo-21,26-dioxa-27λ^6-thia-1,14,15,16-tetraazahexacyclo[20.5.3.1^3,70.1^9,130.0^12,160.0^25,29]dotriaconta-3(32),4,6,9(31),10,12,14,22,24,29-decaen-8-yl]acetic acid] | 6.43 | 7.82 | – |
| Cc1ccc2cc1[C@@H](C)N1Cc3cc(ccc3OS1(=O)=O)OCCCOCCn1nnc3c(C)c(ccc31)[C@H]2CC(=O)O [Example 27b, [(2R,8S)-2,4,33-trimethyl-29,29-dioxo-19,23,28-trioxa-29λ^6-thia-1,14,15,16-tetraazahexacyclo[22.5.3.1^3,70.1^9,130.0^12,160.0^27,31]tetratriaconta-3(34),4,6,9(33),10,12,14,24,26,31-decaen-8-yl]acetic acid] | – | 8.45 | 16.2 |
| Cc1ccc2cc1CN1Cc3cc(c(Cl)cc3OS1(=O)=O)OCCCCn1nnc3c(C)c(ccc31)C2CC(=O)O (single isomer, unassigned) [Example 22b, [23-Chloro-4,31-dimethyl-27,27-dioxo-21,26-dioxa-27λ^6-thia-1,14,15,16-tetraazahexacyclo[20.5.3.1^3,70.1^9,130.0^12,160.0^25,29]dotriaconta-3(32),4,6,9(31),10,12,14,22,24,29-decaen-8-yl]acetic acid] | 6.95 | 8.68 | – |
| Cc1ccc2cc1CN1Cc3cc(ccc3OS1(=O)=O)OCCCCCOc1cc(c(C)c3nnn(C)c13)C2CC(=O)O (single isomer, unassigned) [Example 73b, [4,10,14-Trimethyl-29,29-dioxo-17,23,28-trioxa-29λ^6-thia-1,12,13,14-tetraazahexacyclo[22.5.3.1^3,70.1^9,160.0^11,150.0^27,31]tetratriaconta-3(34),4,6,9(33),10,12,15,24,26,31-decaen-8-yl]acetic acid] | 6.15 | 7.75 | – |
| Cc1ccc2cc1CN1Cc3cc(c(F)cc3OS1(=O)=O)OCCCCn1nnc3c(C)c(ccc31)C2CC(=O)O (single isomer, unassigned) [Example 32a, [23-Fluoro-4,31-dimethyl-27,27-dioxo-21,26-dioxa-27λ^6-thia-1,14,15,16-tetraazahexacyclo[20.5.3.1^3,70.1^9,130.0^12,160.0^25,29]dotriaconta-3(32),4,6,9(31),10,12,14,22,24,29-decaen-8-yl]acetic acid] | 7.70 | 9.19 | – |
| Cc1ccc2cc1[C@@H](C)N1Cc3cc(ccc3OS1(=O)=O)OCCCCCn1nnc3c(C)c(ccc31)[C@@H]2CC(=O)O [Example 20b, [(2R,8R)-2,4,32-trimethyl-28,28-dioxo-22,27-dioxa-28λ^6-thia-1,14,15,16-tetraazahexacyclo[21.5.3.1^3,70.1^9,130.0^12,160.0^26,30]tritriaconta-3(33),4,6,9(32),10,12,14,23,25,30-decaen-8-yl]acetic acid] | – | 8.64 | 131 |
| COc1ccc2cc1CN1Cc3cc(ccc3OS1(=O)=O)OCc1ccccc1SCCCCn1nnc3c(C)c(ccc31)C2CC(=O)O (single isomer, unassigned) [Example 54a] | – | 7.04 | 1290 |
| Cc1ccc2cc1[C@@H](C)N1Cc3cc(ccc3OS1(=O)=O)OCCOCCCn1nnc3c(C)c(ccc31)[C@@H]2CC(=O)O [Example 26b, [(2R,8R)-2,4,33-trimethyl-29,29-dioxo-20,23,28-trioxa-29λ^6-thia-1,14,15,16-tetraazahexacyclo[22.5.3.1^3,70.1^9,130.0^12,160.0^27,31]tetratriaconta-3(34),4,6,9(33),10,12,14,24,26,31-decaen-8-yl]acetic acid] | – | 7.91 | 88.8 |
| Cc1c2ccc3c1nnn3CCCCOc1ccc3c(c1)CN(Cc1cc(F)cc(c1)C2CC(=O)O)S(=O)(=O)O3 (centres unmarked) [Example 4, [5-Fluoro-31-methyl-27,27-dioxo-21,26-dioxa-27λ^6-thia-1,14,15,16-tetraazahexacyclo[20.5.3.1^3,70.1^9,130.0^12,160.0^25,29]dotriaconta-3(32),4,6,9(31),10,12,14,22,24,29-decaen-8-yl]acetic acid] | – | 6.59 | 3470 |
| COc1cc2cc3c1OS(=O)(=O)N(Cc1cc(ccc1C)C(CC(=O)O)c1ccc4c(nnn4CCCCO2)c1C)C3 (single isomer, unassigned) [Example 16b, [24-Methoxy-4,31-dimethyl-27,27-dioxo-21,26-dioxa-27λ^6-thia-1,14,15,16-tetraazahexacyclo[20.5.3.1^3,70.1^9,130.0^12,160.0^25,29]dotriaconta-3(32),4,6,9(31),10,12,14,22,24,29-decaen-8-yl]acetic acid] | 6.97 | 8.76 | – |
| Cc1ccc2cc1CN1Cc3cc(ccc3OS1(=O)=O)OCc1ccccc1OCCCn1nnc3c(C)c(ccc31)C2CC(=O)O (single isomer, unassigned) [Example 57a, [4,38-Dimethyl-34,34-dioxo-20,28,33-trioxa-34λ^6-thia-1,14,15,16-tetraazaheptacyclo[27.5.3.1^3,70.1^9,130.0^12,160.0^21,260.0^32,36]nonatriaconta-3(39),4,6,9(38),10,12,14,21,23,25,29,31,36-tridecaen-8-yl]acetic acid] | 6.30 | 7.23 | – |
| Cc1ccc2cc1CN1Cc3cc(ccc3OS1(=O)=O)OCCCCCCn1nnc3c(C)c(ccc31)C2CC(=O)O (single isomer, unassigned) [Example 11a, [4,33-Dimethyl-29,29-dioxo-23,28-dioxa-29λ^6-thia-1,14,15,16-tetraazahexacyclo[22.5.3.1^3,70.1^9,130.0^12,160.0^27,31]tetratriaconta-3(34),4,6,9(33),10,12,14,24,26,31-decaen-8-yl]acetic acid] | 6.96 | 8.62 | – |
| Cc1ccc2cc1[C@@H](C)N1Cc3cc(ccc3OS1(=O)=O)OCCCOCCn1nnc3c(C)c(ccc31)[C@@H]2CC(=O)O [Example 27a, [(2R,8R)-2,4,33-Trimethyl-29,29-dioxo-19,23,28-trioxa-29λ^6-thia-1,14,15,16-tetraazahexacyclo[22.5.3.1^3,70.1^9,130.1^12,160.0^27,31]tetratriaconta-3(34),4,6,9(33),10,12,14,24,26,31-decaen-8-yl]acetic acid] | – | 7.85 | 93.1 |
| Cc1ccc2cc1[C@@H](C)N1Cc3cc(ccc3OS1(=O)=O)OCCOCCCn1nnc3c(C)c(ccc31)[C@H]2CC(=O)O [Example 26a, [(2R,8S)-2,4,33-Trimethyl-29,29-dioxo-20,23,28-trioxa-29λ^6-thia-1,14,15,16-tetraazahexacyclo[22.5.3.1^3,70.1^9,130.0^12,160.0^27,31]tetratriaconta-3(34),4,6,9(33),10,12,14,24,26,31-decaen-8-yl]acetic acid] | – | 8.47 | 11.3 |
| Cc1ccc2cc1CN1Cc3cc(cc(C)c3OS1(=O)=O)OCCCCn1nnc3c(C)c(ccc31)C2CC(=O)O (single isomer, unassigned) [Example 15a, [4,24,31-Trimethyl-27,27-dioxo-21,26-dioxa-27λ^6-thia-1,14,15,16-tetraazahexacyclo[20.5.3.1^3,70.1^9,130.0^12,160.0^25,29]dotriaconta-3(32),4,6,9(31),10,12,14,22,24,29-decaen-8-yl]acetic acid] | 7.24 | 8.72 | – |
| Cc1ccc2cc1CN1Cc3cc(cc(C)c3OS1(=O)=O)OCCCCn1nnc3c(C)c(ccc31)C2CC(=O)O (single isomer, unassigned) [Example 15b, [4,24,31-Trimethyl-27,27-dioxo-21,26-dioxa-27λ^6-thia-1,14,15,16-tetraazahexacyclo[20.5.3.1^3,70.1^9,130.0^12,160.0^25,29]dotriaconta-3(32),4,6,9(31),10,12,14,22,24,29-decaen-8-yl]acetic acid] | 6.42 | 8.36 | – |
| Cc1ccc2cc1CN1Cc3cc(ccc3OS1(=O)=O)OC[C@H](C)CCn1nnc3c(C)c(ccc31)C2CC(=O)O (single isomer, unassigned) [Example 45b] | 6.84 | 8.63 | – |
| COc1cc2cc(c1)C(CC(=O)O)c1ccc3c(nnn3CCCCOc3ccc4c(c3)CN(C2)S(=O)(=O)O4)c1C (single isomer, unassigned) [Example 8b, [5-Methoxy-31-methyl-27,27-dioxo-21,26-dioxa-27λ^6-thia-1,14,15,16-tetraazahexacyclo[20.5.3.1^3,70.1^9,130.0^12,160.0^25,29]dotriaconta-3(32),4,6,9(31),10,12,14,22,24,29-decaen-8-yl]acetic acid] | 6.29 | 7.91 | – |
| Cc1c(Cl)cc2cc1CN1Cc3cc(ccc3OS1(=O)=O)OCCCCn1nnc3c(C)c(ccc31)C2CC(=O)O (single isomer, unassigned) [Example 33b, [5-Chloro-4,31-dimethyl-27,27-dioxo-21,26-dioxa-27λ^6-thia-1,14,15,16-tetraazahexacyclo[20.5.3.1^3,70.1^9,130.0^12,160.0^25,29]dotriaconta-3(32),4,6,9(31),10,12,14,22,24,29-decaen-8-yl]acetic acid] | 6.05 | 8.03 | – |
